Measured values reported in ChEMBL document CHEMBL4804281, “STK4 inhibitors for treatment of hematologic malignancies” (2020).
Calls of active or inactive are those of the source. The calls are words filed in the database; no cut-off is given here.

Columns and labels:
[1] = system: NCI-H929; assay: Upregulation of YAP1 protein level in human NCI-H929 cells at 1 uM measured after 24 hrs by Western blot analysis; assay type: functional, cell-based
[2] = system: NCI-H929; assay: Induction of apoptosis in human NCI-H929 cells assessed as induction of PARP cleavage at 1 uM measured after 24 hrs by Western blot analysis; assay type: functional, cell-based
[3] = system: NCI-H929; assay: Upregulation of YAP1 protein level in human NCI-H929 cells at 3 to 10 uM measured after 72 hrs by Western blot analysis; assay type: functional, cell-based; details: dose 3-10 µM
[4] = system: NCI-H929; assay: Upregulation of PUMA protein level in human NCI-H929 cells at 1 uM measured after 24 hrs by Western blot analysis; assay type: functional, cell-based
[5] = system: MM1.S; assay: Upregulation of YAP1 protein level in human MM1.S cells at 3 to 10 uM measured after 72 hrs by Western blot analysis; assay type: functional, cell-based; details: dose 3-10 µM
[6] = system: MM1.S; assay: Induction of apoptosis in human MM1.S cells assessed as late apoptotic cells measured after 48 hrs by annevxinV/FITC-propidium iodide staining based flow cytometry (reference value: 2.09 %); assay type: functional
[7] = system: NCI-H929; assay: Upregulation of BAX protein level in human NCI-H929 cells at 1 uM measured after 24 hrs by Western blot analysis; assay type: functional, cell-based
[8] = system: NCI-H929; assay: Upregulation of p21 protein level in human NCI-H929 cells at 1 uM measured after 24 hrs by Western blot analysis; assay type: functional, cell-based
[9] = biological target: Mitogen-activated protein kinase kinase kinase kinase 3 (Homo sapiens) (UniProt Q8IVH8); assay: Inhibition of KHS2 in human NCI-H929 cells at 10 uM by mass spectroscopic analysis relative to control; assay type: cell-based
[10] = biological target: Ribosomal protein S6 kinase alpha-3 (Homo sapiens) (UniProt P51812); assay: Inhibition of RSK2 domain 1 in human NCI-H929 cells at 10 uM by mass spectroscopic analysis relative to control; assay type: cell-based
[11] = biological target: Mitogen-activated protein kinase kinase kinase 21 (Homo sapiens) (UniProt Q5TCX8); assay: Inhibition of MLK4 in human NCI-H929 cells at 10 uM by mass spectroscopic analysis relative to control; assay type: cell-based
[12] = biological target: Misshapen-like kinase 1 (Homo sapiens) (UniProt Q8N4C8); assay: Inhibition of MINK in human NCI-H929 cells by mass spectroscopic analysis; assay type: cell-based; details: concentration not given here
[13] = biological target: T1, Serine/threonine-protein kinase 3 (Homo sapiens) (UniProt Q13188); assay: Inhibition of MST2 in human NCI-H929 cells at 10 uM by mass spectroscopic analysis relative to control; assay type: cell-based
T1 sequence (whole entry): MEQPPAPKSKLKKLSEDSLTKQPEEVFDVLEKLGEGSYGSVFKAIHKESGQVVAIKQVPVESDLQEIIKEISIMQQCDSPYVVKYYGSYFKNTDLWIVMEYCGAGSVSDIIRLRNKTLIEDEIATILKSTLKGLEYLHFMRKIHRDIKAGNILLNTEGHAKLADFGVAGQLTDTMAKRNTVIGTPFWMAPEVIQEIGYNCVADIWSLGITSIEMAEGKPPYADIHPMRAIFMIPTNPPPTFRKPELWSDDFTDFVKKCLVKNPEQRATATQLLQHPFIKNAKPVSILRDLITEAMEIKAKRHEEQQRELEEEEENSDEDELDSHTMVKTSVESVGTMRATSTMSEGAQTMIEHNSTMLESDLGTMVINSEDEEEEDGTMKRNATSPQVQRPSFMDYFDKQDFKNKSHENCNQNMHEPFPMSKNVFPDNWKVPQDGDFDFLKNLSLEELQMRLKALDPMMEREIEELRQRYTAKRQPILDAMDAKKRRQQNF

[14] = biological target: Glycogen synthase kinase-3 alpha (Homo sapiens) (UniProt P49840); assay: Inhibition of GSK3A in human NCI-H929 cells at 10 uM by mass spectroscopic analysis relative to control; assay type: cell-based
[15] = biological target: Dual specificity mitogen-activated protein kinase kinase 7 (Homo sapiens) (UniProt O14733); assay: Inhibition of MAP2K7 in human NCI-H929 cells at 10 uM by mass spectroscopic analysis relative to control; assay type: cell-based
[16] = biological target: 1-phosphatidylinositol 3-phosphate 5-kinase (Homo sapiens) (UniProt Q9Y2I7); assay: Inhibition of PIP5K3 in human NCI-H929 cells at 10 uM by mass spectroscopic analysis relative to control; assay type: cell-based
[17] = biological target: Casein kinase I isoform gamma-3 (Homo sapiens) (UniProt Q9Y6M4); assay: Inhibition of CK1g3 in human NCI-H929 cells at 10 uM by mass spectroscopic analysis relative to control; assay type: cell-based
[18] = biological target: Mitogen-activated protein kinase kinase kinase 1 (Homo sapiens) (UniProt Q13233); assay: Inhibition of MAP3K1 in human NCI-H929 cells at 10 uM by mass spectroscopic analysis relative to control; assay type: cell-based
[19] = biological target: Phosphatidylinositol 5-phosphate 4-kinase type-2 alpha (Homo sapiens) (UniProt P48426); assay: Inhibition of PIP4K2A in human NCI-H929 cells at 10 uM by mass spectroscopic analysis relative to control; assay type: cell-based
[20] = biological target: Dual specificity mitogen-activated protein kinase kinase 4 (Homo sapiens) (UniProt P45985); assay: Inhibition of MAP2K4 in human NCI-H929 cells at 10 uM by mass spectroscopic analysis relative to control; assay type: cell-based
[21] = biological target: Serine/threonine-protein kinase STK11 (Homo sapiens) (UniProt Q15831); assay: Inhibition of LKB1 in human NCI-H929 cells at 10 uM by mass spectroscopic analysis relative to control; assay type: cell-based
[22] = biological target: Calcium/calmodulin-dependent protein kinase type II subunit gamma (Homo sapiens) (UniProt Q13555); assay: Inhibition of CAMK2G in human NCI-H929 cells at 10 uM by mass spectroscopic analysis relative to control; assay type: cell-based
[23] = biological target: eIF-2-alpha kinase GCN2 (Homo sapiens) (UniProt Q9P2K8); assay: Inhibition of GCN2 domain 2 in human NCI-H929 cells at 10 uM by mass spectroscopic analysis relative to control; assay type: cell-based
[24] = biological target: Scaffold protein ILK (Homo sapiens) (UniProt Q13418); assay: Inhibition of ILK in human NCI-H929 cells at 10 uM by mass spectroscopic analysis relative to control; assay type: cell-based
[25] = biological target: Phosphatidylinositol 5-phosphate 4-kinase type-2 gamma (Homo sapiens) (UniProt Q8TBX8); assay: Inhibition of PIP4K2C in human NCI-H929 cells at 10 uM by mass spectroscopic analysis relative to control; assay type: cell-based
[26] = biological target: Protein kinase C zeta type (Homo sapiens) (UniProt Q05513); assay: Inhibition of PKCz in human NCI-H929 cells at 10 uM by mass spectroscopic analysis relative to control; assay type: cell-based

Sequence of Scaffold protein ILK (Homo sapiens) (Q13418 whole entry): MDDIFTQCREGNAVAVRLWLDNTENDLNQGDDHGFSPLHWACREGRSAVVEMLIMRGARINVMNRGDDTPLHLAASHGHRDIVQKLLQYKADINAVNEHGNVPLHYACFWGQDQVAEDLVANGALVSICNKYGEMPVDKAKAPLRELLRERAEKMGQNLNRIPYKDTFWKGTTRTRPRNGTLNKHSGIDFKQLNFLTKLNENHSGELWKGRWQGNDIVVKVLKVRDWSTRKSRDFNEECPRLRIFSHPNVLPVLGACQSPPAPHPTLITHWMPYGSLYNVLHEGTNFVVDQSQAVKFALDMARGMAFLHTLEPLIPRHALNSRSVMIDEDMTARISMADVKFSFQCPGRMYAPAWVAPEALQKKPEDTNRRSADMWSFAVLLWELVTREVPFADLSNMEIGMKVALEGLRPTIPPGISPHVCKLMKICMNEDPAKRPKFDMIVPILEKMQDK
Sequence of Glycogen synthase kinase-3 alpha (Homo sapiens) (P49840 2-483 limits assumed): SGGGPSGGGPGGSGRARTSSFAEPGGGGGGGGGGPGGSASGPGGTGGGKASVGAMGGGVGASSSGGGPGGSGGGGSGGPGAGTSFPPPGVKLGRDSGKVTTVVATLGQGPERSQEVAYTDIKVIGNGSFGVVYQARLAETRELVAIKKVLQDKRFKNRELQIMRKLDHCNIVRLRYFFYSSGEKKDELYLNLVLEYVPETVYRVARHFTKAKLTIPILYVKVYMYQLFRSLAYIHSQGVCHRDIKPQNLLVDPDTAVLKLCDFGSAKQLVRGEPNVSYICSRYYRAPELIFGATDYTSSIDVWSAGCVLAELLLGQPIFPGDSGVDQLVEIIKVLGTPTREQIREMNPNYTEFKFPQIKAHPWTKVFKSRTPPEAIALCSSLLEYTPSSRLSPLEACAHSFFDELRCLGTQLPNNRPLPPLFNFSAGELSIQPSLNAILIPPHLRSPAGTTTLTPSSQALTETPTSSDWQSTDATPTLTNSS
Sequence of Misshapen-like kinase 1 (Homo sapiens) (Q8N4C8 whole entry, looked up): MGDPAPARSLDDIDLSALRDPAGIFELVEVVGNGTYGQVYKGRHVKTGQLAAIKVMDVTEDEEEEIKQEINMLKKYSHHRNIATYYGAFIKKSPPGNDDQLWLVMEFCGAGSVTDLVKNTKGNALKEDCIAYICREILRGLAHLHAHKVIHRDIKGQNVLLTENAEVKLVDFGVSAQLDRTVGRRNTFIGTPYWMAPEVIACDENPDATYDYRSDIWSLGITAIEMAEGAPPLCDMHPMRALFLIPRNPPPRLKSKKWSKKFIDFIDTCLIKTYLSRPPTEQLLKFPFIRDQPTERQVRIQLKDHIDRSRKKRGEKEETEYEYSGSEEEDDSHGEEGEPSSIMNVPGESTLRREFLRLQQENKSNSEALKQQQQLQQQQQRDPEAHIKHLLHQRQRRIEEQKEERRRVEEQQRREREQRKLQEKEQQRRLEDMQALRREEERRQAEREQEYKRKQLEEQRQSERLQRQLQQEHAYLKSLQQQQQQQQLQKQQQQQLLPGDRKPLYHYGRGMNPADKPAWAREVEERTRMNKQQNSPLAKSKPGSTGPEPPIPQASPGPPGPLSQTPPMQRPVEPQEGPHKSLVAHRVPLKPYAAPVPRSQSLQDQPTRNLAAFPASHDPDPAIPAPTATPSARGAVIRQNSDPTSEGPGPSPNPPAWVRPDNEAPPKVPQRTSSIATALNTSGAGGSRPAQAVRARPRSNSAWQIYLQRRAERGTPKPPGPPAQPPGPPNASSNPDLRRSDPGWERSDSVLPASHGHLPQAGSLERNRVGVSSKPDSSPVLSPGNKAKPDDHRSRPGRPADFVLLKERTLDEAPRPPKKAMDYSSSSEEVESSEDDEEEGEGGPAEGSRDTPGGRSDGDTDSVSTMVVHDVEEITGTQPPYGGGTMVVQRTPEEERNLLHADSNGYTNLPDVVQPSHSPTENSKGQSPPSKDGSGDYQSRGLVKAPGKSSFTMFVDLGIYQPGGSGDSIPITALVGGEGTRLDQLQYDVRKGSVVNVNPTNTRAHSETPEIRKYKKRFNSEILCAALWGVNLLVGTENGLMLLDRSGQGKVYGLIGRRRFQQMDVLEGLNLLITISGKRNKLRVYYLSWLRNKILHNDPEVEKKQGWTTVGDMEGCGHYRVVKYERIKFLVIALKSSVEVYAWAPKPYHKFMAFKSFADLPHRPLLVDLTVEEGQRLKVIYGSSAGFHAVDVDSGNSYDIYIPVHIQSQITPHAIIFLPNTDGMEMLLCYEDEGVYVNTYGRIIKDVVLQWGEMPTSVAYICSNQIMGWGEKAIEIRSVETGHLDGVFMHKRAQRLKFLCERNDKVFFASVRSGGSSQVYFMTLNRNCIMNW
Sequence of Serine/threonine-protein kinase STK11 (Homo sapiens) (Q15831 whole entry): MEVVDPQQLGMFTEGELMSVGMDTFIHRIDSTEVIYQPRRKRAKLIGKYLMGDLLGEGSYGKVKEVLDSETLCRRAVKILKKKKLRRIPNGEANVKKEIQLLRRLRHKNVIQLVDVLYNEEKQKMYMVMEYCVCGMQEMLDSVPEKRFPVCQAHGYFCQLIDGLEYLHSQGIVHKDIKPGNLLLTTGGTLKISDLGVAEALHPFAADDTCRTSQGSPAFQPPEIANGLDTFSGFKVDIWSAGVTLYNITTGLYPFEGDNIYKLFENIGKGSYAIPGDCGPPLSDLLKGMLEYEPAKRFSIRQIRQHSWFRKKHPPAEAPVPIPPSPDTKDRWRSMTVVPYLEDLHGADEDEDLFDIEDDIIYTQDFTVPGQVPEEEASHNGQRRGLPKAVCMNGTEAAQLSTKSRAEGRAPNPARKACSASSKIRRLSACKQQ
Sequence of Calcium/calmodulin-dependent protein kinase type II subunit gamma (Homo sapiens) (Q13555 whole entry, the tested form may be a part): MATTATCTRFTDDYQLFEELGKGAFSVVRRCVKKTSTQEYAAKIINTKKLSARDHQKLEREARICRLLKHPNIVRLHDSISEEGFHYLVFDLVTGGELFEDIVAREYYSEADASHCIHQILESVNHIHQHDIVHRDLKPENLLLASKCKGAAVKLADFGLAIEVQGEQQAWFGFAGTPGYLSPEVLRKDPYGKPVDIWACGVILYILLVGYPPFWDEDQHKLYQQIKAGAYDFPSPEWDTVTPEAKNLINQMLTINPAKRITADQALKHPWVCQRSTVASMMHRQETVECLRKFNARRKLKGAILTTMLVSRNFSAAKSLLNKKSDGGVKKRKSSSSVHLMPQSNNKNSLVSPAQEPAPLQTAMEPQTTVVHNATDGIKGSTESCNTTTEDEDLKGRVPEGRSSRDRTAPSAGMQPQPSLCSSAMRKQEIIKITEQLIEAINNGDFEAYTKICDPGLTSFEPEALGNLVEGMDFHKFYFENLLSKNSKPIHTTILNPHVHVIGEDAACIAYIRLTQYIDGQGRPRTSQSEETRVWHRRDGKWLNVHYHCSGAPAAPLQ
Sequence of Ribosomal protein S6 kinase alpha-3 (Homo sapiens) (P51812 whole entry, the tested form may be a part): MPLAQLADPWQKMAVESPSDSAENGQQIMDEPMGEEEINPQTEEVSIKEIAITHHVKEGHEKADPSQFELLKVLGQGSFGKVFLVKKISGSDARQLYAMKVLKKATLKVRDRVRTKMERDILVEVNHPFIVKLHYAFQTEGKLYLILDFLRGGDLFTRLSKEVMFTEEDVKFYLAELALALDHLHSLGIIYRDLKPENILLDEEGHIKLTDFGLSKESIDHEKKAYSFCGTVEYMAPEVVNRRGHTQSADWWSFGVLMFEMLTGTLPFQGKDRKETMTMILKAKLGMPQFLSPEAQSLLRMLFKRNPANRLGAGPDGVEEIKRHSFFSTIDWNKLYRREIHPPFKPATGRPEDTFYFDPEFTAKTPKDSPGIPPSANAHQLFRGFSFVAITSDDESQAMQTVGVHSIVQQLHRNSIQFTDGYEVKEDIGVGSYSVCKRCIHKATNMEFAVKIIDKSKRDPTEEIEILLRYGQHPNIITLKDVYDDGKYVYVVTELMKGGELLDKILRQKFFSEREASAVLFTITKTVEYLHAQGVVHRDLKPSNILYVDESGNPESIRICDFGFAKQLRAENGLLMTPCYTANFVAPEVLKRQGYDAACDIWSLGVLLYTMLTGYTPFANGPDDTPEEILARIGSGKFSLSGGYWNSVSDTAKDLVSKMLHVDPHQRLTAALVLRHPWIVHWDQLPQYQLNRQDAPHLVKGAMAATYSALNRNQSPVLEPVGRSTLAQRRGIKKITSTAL
Sequence of Casein kinase I isoform gamma-3 (Homo sapiens) (Q9Y6M4 whole entry, looked up, canonical isoform): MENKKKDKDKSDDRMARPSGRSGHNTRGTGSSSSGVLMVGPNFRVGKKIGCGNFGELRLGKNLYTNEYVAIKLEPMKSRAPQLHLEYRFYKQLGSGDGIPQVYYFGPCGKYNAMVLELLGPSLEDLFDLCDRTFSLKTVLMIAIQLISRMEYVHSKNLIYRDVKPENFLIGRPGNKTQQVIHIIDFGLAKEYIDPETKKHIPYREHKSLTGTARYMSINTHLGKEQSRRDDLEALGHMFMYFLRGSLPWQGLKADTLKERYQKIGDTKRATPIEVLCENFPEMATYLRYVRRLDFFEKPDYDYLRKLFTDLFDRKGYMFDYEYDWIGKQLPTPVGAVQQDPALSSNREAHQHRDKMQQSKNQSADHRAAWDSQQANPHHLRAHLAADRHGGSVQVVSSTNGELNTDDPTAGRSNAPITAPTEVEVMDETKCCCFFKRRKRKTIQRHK
Sequence of Phosphatidylinositol 5-phosphate 4-kinase type-2 gamma (Homo sapiens) (Q8TBX8 whole entry): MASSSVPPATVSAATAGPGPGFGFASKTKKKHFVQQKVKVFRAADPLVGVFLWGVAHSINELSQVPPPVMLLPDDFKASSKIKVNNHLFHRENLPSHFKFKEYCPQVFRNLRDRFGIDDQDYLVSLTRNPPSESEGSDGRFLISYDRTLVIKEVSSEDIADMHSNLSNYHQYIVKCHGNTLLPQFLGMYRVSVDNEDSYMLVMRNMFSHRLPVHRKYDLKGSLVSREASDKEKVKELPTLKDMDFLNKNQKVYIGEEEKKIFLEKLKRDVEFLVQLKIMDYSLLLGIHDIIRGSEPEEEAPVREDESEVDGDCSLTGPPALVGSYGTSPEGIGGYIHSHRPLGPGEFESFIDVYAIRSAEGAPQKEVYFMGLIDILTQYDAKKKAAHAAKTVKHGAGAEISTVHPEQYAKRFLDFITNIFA

## Nc1ncc(-c2cccc([N+](=O)[O-])c2F)cc1-c1ccc2c(c1)CCNC2=O
[1]
  Activity: Active
[2]
  Activity: Active
[3]
  Activity: inactive
[4]
  Activity: Active
[5]
  Activity: inactive
[6]
  Activity: 25.05%
[7]
  Activity: Active
[8]
  Activity: Active

## CN(C1CC1)S(=O)(=O)c1ccc(-c2cnc(N)c(-c3ccc4c(c3)CCNC4=O)c2)c(F)c1
[9]
  inhibition: 50%

## Nc1ncc(-c2ccc(NS(=O)(=O)C3CC3)cc2OC2CCCCC2)cc1-c1ccc2c(c1)CCNC2=O
[10]
  inhibition: 50%
[11]
  inhibition: 50%

## COc1cc(NS(=O)(=O)C2CC2)ccc1-c1cnc(N)c(-c2ccc3c(c2)CCNC3=O)c1
[12]
  inhibition: 0%
[13]
  inhibition: 0%
[14]
  inhibition: 75%
[15]
  inhibition: 75%
[16]
  inhibition: 0%
[17]
  inhibition: 0%
[18]
  inhibition: 0%
[19]
  inhibition: > 90%
[20]
  inhibition: 0%
[21]
  inhibition: > 90%
[22]
  inhibition: 75%
[23]
  inhibition: 75%
[24]
  inhibition: 50%
[25]
  inhibition: 75%
[26]
  inhibition: 50%
